Results reported in patent US12662491B2 (Redona Therapeutics, Inc., priority 2020, dated 2026).
Read-outs that look alike come from different tables or passages of the source.

Target: T1, Zcchc11 enzyme (Homo sapiens, UniProt Q5TAX3)
T1 construct: made in house; host or cells: HEK293 cells (Zcchc11); E. coli Rosetta II (LIN28A)
T1 sequence (Q5TAX3 212-1420): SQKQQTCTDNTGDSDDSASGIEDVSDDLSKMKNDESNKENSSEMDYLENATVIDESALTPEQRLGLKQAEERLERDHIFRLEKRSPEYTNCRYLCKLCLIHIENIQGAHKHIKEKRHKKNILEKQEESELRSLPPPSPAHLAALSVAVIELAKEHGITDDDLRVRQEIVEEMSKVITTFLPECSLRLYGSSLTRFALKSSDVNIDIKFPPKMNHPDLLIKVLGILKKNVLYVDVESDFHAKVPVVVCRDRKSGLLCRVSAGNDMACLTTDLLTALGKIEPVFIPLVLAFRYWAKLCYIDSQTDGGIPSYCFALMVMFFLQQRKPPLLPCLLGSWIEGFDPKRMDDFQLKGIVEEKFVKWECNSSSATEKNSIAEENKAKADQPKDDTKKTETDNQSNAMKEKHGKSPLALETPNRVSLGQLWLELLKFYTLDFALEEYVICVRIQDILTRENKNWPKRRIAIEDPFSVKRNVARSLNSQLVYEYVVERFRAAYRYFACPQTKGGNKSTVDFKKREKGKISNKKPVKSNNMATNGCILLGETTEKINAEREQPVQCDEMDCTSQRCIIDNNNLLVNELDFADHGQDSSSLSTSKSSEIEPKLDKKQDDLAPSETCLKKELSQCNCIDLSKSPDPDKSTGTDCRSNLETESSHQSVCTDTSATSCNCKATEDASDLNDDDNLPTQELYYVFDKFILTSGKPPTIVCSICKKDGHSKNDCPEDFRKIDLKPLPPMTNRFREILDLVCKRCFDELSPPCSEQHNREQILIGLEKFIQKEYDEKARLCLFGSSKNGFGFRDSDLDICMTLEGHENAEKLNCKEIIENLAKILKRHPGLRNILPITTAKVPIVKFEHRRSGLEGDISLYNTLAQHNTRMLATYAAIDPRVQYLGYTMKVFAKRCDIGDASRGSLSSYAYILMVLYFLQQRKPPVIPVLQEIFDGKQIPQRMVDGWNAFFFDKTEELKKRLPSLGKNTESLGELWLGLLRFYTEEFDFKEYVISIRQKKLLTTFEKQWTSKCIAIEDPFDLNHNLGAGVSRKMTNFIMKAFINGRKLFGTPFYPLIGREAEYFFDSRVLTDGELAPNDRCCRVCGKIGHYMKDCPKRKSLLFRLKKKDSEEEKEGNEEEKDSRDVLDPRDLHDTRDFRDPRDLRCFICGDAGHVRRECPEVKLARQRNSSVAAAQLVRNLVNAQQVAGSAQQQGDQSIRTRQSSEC
Experiment: TUTase assay (Zcchc11 assay, Lin28a-dependent polyuridylation of pre-let-7)
Type: biochemical
Conditions: read-out: Potency Lin28a-dep Z11 IC50
How it was run: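 HEK293-expressed human Zcchc11 (residues 212-1420, 0.2 nM) with 10 nM LIN28A and 2 nM 5′-fluorescein pre-let-7, preincubated 30 min at room temperature, pH 7.3. Started with 5 uM UTP; poly(U) tails quenched by 3′-rhodamine A20 probe, read kinetically. IC50 from early-rate four-parameter fit; no-UTP wells define 0%.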

[1] = Lin28a-dependent Zcchc11 (Z11) TUTase assay
[2] = Lin28a-dependent Zcchc11 (Z11) TUTase activity

Row | Structure (SMILES) | IC50 [1] | further results
1 | Cc1cccnc1OC[C@H]1CCCN1c1cc2c(cc1Cl)c(=O)c(C(=O)O)cn2C1(C)CCCC1 [Example 457, (R)-6-chloro-1-(1-methylcyclo-pentyl)-7-(2-(((3-methylpyridin-2-yl)oxy)methyl)pyrrolidin-1-yl)-4-oxo-1,4-dihydroquinoline-3-carboxylic acid] | ≤ 1000 nM | 
2 | O=C(O)c1cn(-c2cnc(O)cn2)c2cc(N3CCC[C@@H]3COc3ncccc3Cl)c(Cl)cc2c1=O [Example 364, 6-Chloro-7-[(2R)-2-{[(3-chloropyridin-2-yl)oxy]methyl}pyrrolidin-1-yl]-1-(5-hydroxy-pyrazin-2-yl)-4-oxo-1,4-dihydroquinoline-3-carboxylic acid] | ≤ 1000 nM | 
3 | CN(C)C1CN(c2ccc(-n3cc(C(=O)O)c(=O)c4cc(Cl)c(N5CCC[C@@H]5C[S+]([O-])c5ncccc5Cl)cc43)cn2)C1 (stereo partly drawn) [Example 610, 6-chloro-7-((2R)-2-(((3-chloropyridin-2-yl)sulfinyl)methyl)pyrrolidin-1-yl)-1-(6-(3-(dimethylamino)azetidin-1-yl)pyridin-3-yl)-4-oxo-1,4-dihydroquinoline-3-carboxylic acid] | 1000 to 10000 nM | 
4 | CNc1ccc(-n2cc(C(=O)O)c(=O)c3cc(Cl)c(N4CCC[C@@H]4COc4ncccc4Cl)cc32)cn1 [Example 417, (R)-6-chloro-7-(2-(((3-chloropyridin-2-yl)oxy)methyl)pyrrolidin-1-yl)-1-(6-(methylamino)pyridin-3-yl)-4-oxo-1,4-dihydroquinoline-3-carboxylic acid] | ≤ 1000 nM | 
5 | CN(C)C1CN(c2ncc(-n3cc(C(=O)O)c(=O)c4cc(Cl)c(N5CC(c6cccnc6)C[C@@H]5COc5ncccc5Cl)cc43)cn2)C1 (stereo partly drawn) [Compound 303, 6-chloro-7-((2R)-2-(((3-chloropyridin-2-yl)oxy)methyl)-4-(pyridin-3-yl)pyrrolidin-1-yl)-1-(2-(3-(dimethyl-amino)azetidin-1-yl)pyrimidin-5-yl)-4-oxo-1,4-dihydro-quinoline-3-carboxylic acid] |  | IC50 [2]: ≤ 1000 nM
6 | COc1ccc(Cl)c(OC[C@H]2C[C@@H]3C[C@@H]3N2c2cc3c(cc2Cl)c(=O)c(C(=O)O)cn3-c2ccnc(N)c2)n1 (racemic) [Compound 231, Rac-1-(2-aminopyridin-4-yl)-6-chloro-7-((1R,3S,5R)-3-(((3-chloro-6-methoxy-pyridin-2-yl)oxy)methyl)-2-azabicyclo [3.1.0]hexan-2-yl)-4-oxo-1,4-dihydro-quinoline-3-carboxylic acid] |  | IC50 [2]: ≤ 1000 nM
7 | O=C(O)c1cn(-c2ccc(O)nn2)c2cc(N3CCC[C@@H]3COc3ccccn3)c(F)cc2c1=O [Example 410, (R)-6-fluoro-1-(6-hydroxypyridazin-3-yl)-4-oxo-7-(2-((pyridin-2-yloxy)methyl)pyrrolidin-1-yl)-1,4-dihydroquinoline-3-carboxylic acid] | 1000 to 10000 nM | 
8 | CN(C)c1ccc(-n2cc(C(=O)O)c(=O)c3cc(Cl)c(N4CCC[C@@H]4COc4ncccc4Cl)cc32)cn1 [Example 421, (R)-6-chloro-7-(2-(((3-chloropyridin-2-yl)oxy)methyl)pyrrolidin-1-yl)-1-(6-(dimethyl-amino)pyridin-3-yl)-4-oxo-1,4-dihydroquinoline-3-carboxylic acid] | ≤ 1000 nM | 
9 | O=C(O)c1cn(-c2cc3nc[nH]c3cn2)c2cc(N3CCC[C@@H]3COc3ncccc3Cl)c(Cl)cc2c1=O [Example 604, (R)-6-chloro-7-(2-(((3-chloropyridin-2-yl)oxy)methyl)pyrrolidin-1-yl)-1-(3H-imidazo[4,5-c]pyridin-6-yl)-4-oxo-1,4-dihydroquinoline-3-carboxylic acid] | ≤ 1000 nM | 
10 | O=C(O)c1cn(-c2ccnnc2)c2cc(N3CCC[C@@H]3COc3ncccc3Cl)c(Cl)cc2c1=O [Example 504, 6-chloro-7-[(2R)-2-{[(3-chloropyridin-2-yl)oxy]methyl}pyrrolidin-1-yl]-4-oxo-1-(pyridazin-4-yl)-1,4-dihydroquinoline-3-carboxylic acid] | ≤ 1000 nM | 
11 | COc1cnc(OC[C@H]2CCCN2c2cc3c(cc2Cl)c(=O)c(C(=O)O)cn3-c2ccc(N3CC(N(C)C)C3)nc2)c(Cl)c1 [Example 629, (R)-6-chloro-7-(2-(((3-chloro-5-methoxypyridin-2-yl)oxy)methyl)pyrrolidin-1-yl)-1-(6-(3-(dimethylamino)aztidin-1-yl)pyridin-3-yl)-4-oxo-1,4-dihydroquinoline-3-carboxylic acid] | ≤ 1000 nM | 
12 | CCc1cc2c(=O)c(C(=O)O)cn(-c3ccc(N4CC(N(C)C)C4)nc3)c2cc1N1CCC[C@@H]1COc1ncccc1Cl [Example 546, (R)-7-(2-(((3-chloropyridin-2-yl)oxy)methyl)pyrrolidin-1-yl)-1-(6-(3-(dimethylamino)azetidin-1-yl)pyridin-3-yl)-6-ethyl-4-oxo-1,4-dihydroquinoline-3-carboxylic acid] | ≤ 1000 nM | 
13 | O=C(O)c1cn(-c2ccc(O)cc2)c2cc(N3CCC[C@@H]3COc3ccccn3)c(F)cc2c1=O [Example 382, (R)-6-fluoro-1-(4-hydroxyphenyl)-4-oxo-7-(2-((pyridin-2-yloxy)methyl)pyrrolidin-1-yl)-1,4-dihydroquinoline 3-carboxylic acid] | ≤ 1000 nM | 
14 | COCCN(C)C1CN(c2ccc(-n3cc(C(=O)O)c(=O)c4cc(C#N)c(N5CCC[C@@H]5COc5ncccc5Cl)cc43)cn2)C1 [Compound 218, 7-[(2R)-2-[[(3-chloropyridin-2-yl)oxy]methyl]pyrrolidin-1-yl]-6-cyano-1-(6-[3-[(2-methoxyethyl) (methyl)amino]azetidin-1-yl]pyridin-3-yl)-4-oxoquinoline-3-carboxylic acid] |  | IC50 [2]: ≤ 1000 nM
15 | Nc1ccc(-n2cc(C(=O)O)c(=O)c3cc(F)c(N4CCC[C@@H]4COc4ncccc4Cl)cc32)cn1 [Compound 317, 1-(6-Aminopyridin-3-yl)-7-[(2R)-2-[[(3-chloropyridin-2-yl)oxy]methyl]pyrrolidin-1-yl]-6-fluoro-4-oxoquinoline-3-carboxylic acid] |  | IC50 [2]: ≤ 1000 nM
16 | O=C(O)c1cn(-c2ccc(O)cc2)c2cc(N3CCC[C@@H]3COc3cc4[nH]ccc4cn3)c(F)cc2c1=O [Example 12, (R)-7-(2-(((1H-pyrrolo[3,2-c]pyridine-6-yl)oxy)methyl)pyrrolidin-1-yl)-6-fluoro-1-(4-hydroxyphenyl)-4-oxo-1,4-dihydroquinoline-3-carboxylic acid] |  | IC50 (LIN28A 10 nM, Zcchc11 0.2 nM, 5′-fluorescein pre-let-7 miRNA 2 nM, UTP 5 uM, room temperature, 30 minutes pre-incubation): ≤ 1000 nM
17 | Cc1cccnc1OC[C@H]1CCCN1c1cc2c(cc1F)c(=O)c(C(=O)O)cn2C1CC(O)C1 (stereo partly drawn) [Example 362, (R)-6-fluoro-1-(3-hydroxycyclo-butyl)-7-(2-(((3-methylpyridin-2-yl)oxy)methyl)pyrrolidin-1-yl)-4-oxo-1,4-dihydroquinoline-3-carboxylic acid] | ≤ 1000 nM | 
